Test results reported in patent US8524781B2, “Organosulfur compounds, a method of making organosulfur compounds and their use for inhibiting the growth of tumour cells” (University of Cape Town, priority 2008, dated 2013).
pIC50: −log10 of the molar value. Where two headings read alike, the source gives them in different places. Each block holds one compound with its values, some of them ahead of it.

Key:
Format in all cases: cell-based
WHCO1 cells = assay: MTT assay, inhibition of cell growth of WHCO1 cells; conditions: for pIC50: WHCO1 oesophageal epithelial cancer cells, MTT, 48 hours incubation
Procedure: (§1) The compounds were evaluated for their in vitro ability to inhibit cell growth of cultured tumour cells using the 3-(4,5-dimethylthiazol-2-yl)-2,5-diphenyltetrazolium bromide (MTT) assay. These cell types include:
3. WHCO1 cells which are oesophageal epithelial cancer cells; and
(§2) One oesophageal squamous cell carcinoma cell line WHCO1 originally established from surgical biopsies of primary oesophageal squamous cell carcinomas, a transformed fibroblast cell line CT-1 or human breast epithelial cells MDA-MB-231 were cultured in DMEM containing 10% foetal calf serum and 1% penicillin and streptomycin at 37° C. in a humidified atmosphere of 5% CO2. For the MTT assay, 3×10^3 cells were plated in 96-well plates in 90 μL DMEM per well. Compounds solubilized in DMEM+1% DMSO (10 μl) were added to cells and DMEM+1% DMSO, (10 μl) alone was added to the control to give a final concentration of 0-200 μM compound and 0.1% DMSO. After 48 hours incubation period, 10 μL of the MTT labelling reagent (final concentration 0.45 mg/ml) was added to each well and incubated for 4 hours in a humidified atmosphere at 37° C. One hundred micro litres of the solubilization solution was added to each well and the plates were incubated overnight at 37° C. The spectrophotometric absorbance of the wells was measured at 595 nm using a microtiter plate reader.

MDA-MB-231 cells = assay: MTT assay, inhibition of cell growth of MDA-MB-231 cells; conditions: MDA-MB-231 human breast epithelial cancer cells, 48 hours incubation
Procedure: as §1
5. MDA-MB-231 cells which are human breast epithelial cancer cells; and
as §2

CT-1 cells = assay: MTT assay, inhibition of cell growth of CT-1 cells; conditions: CT-1 transformed WI38 fibroblasts, 48 hours incubation, read-out: CT1 IC50
Procedure: as §1
2. CT-1 cells which are transformed WI38 fibroblasts;
as §2

SMILES: COc1ccc(CSSC=CC[S+]([O-])Cc2ccc(OC)cc2)cc1 (mixture of isomers) [EZ-11, (E/Z)-1-(p-methoxyphenyl)-8-(p-methoxyphenyl)-2,3,7-trithiaocta-4-ene-7-oxide]
pIC50 (WHCO1 cells): 5.87
activity relative to ajoene at inhibiting growth of WHCO1 oesophageal cancer cells in vitro (WHCO1 cells; compared with ajoene, WHCO1 cells): fifteen times more active than ajoene
pIC50 (MDA-MB-231 cells): 6.09

pIC50 (MDA-MB-231 cells): 5.18
SMILES: C=CCSSC=CC[S+]([O-])Cc1ccc(OC)cc1 (mixture of isomers) [EZ-8, (E/Z)-10-(p-methoxyphenyl)-4,5,9-trithiadeca-1,6-diene-9-oxide]
pIC50 (WHCO1 cells; WHCO1, 48 h): 5.15
pIC50 (CT-1 cells; Homo sapiens, WI-38, 48 h): 4.95

SMILES: CCC[S+]([O-])CC=CSSC (mixture of isomers) [Compound E-15, (E/Z)-2,3,7-trithiadeca-4-ene-7-oxide]
pIC50 (WHCO1 cells): 4.32
pIC50 (CT-1 cells): 4.99

SMILES: C=CCSSC=CC[S+]([O-])CCCO (mixture of isomers) [Compound E-4, (E/Z)-4,8,9-trithiadodeca-6,11-diene-1-ol-4-oxide]
pIC50 (WHCO1 cells): 4.57
pIC50 (CT-1 cells): 4.64

SMILES: C=CCSSC=CC[S+]([O-])CCCOCc1ccc(OC)cc1 (mixture of isomers) [Compound Z-9, (E/Z)-12-(p-methoxybenzyloxy)-4,5,9-trithiadodeca-1,6-diene-9-oxide]
pIC50 (WHCO1 cells): 4.77
pIC50 (CT-1 cells): 4.66

SMILES: C=CCSSC=CC[S+]([O-])CCCN1C(=O)c2ccccc2C1=O (mixture of isomers) [Compound Z-5, (E/Z)-12-phthalimido-4,5,9-trithiadodeca-1,6-diene-9-oxide]
pIC50 (WHCO1 cells): 4.44
pIC50 (CT-1 cells): 4.46

SMILES: CCC[S+]([O-])CC=CSSCCCNS(=O)(=O)c1cccc2c(N(C)C)cccc12 (mixture of isomers) [EZ-13, (E/Z)-1-(dansylamino)-4,5,9-trithiadodeca-6-ene-9-oxide]
pIC50 (WHCO1 cells): 4.85
pIC50 (MDA-MB-231 cells): 4.37
pIC50 (CT-1 cells): 4.75

SMILES: C=CCSSC=CC[S+]([O-])Cc1ccccc1 (mixture of isomers) [EZ-7, (E/Z)-10-phenyl-4,5,9-trithiadeca-1,6-diene-9-oxide]
pIC50 (WHCO1 cells; WHCO1, 48 h): 5.06
pIC50 (CT-1 cells; Homo sapiens, WI-38, 48 h): 4.78

SMILES: C=CCSSC=CC[S+]([O-])CCCOCc1ccc(OC)cc1 (mixture of isomers) [Compound E-9, (E/Z)-12-(p-methoxybenzyloxy)-4,5,9-trithiadodeca-1,6-diene-9-oxide]
pIC50 (WHCO1 cells): 4.72
pIC50 (CT-1 cells): 4.63

SMILES: C=CCSSC=CC[S+]([O-])CCCN1C(=O)c2ccccc2C1=O (mixture of isomers) [Compound E-5, (E/Z)-12-phthalimido-4,5,9-trithiadodeca-1,6-diene-9-oxide]
pIC50 (WHCO1 cells): 4.16
pIC50 (CT-1 cells): 4.02

pIC50 (MDA-MB-231 cells): 4.59
SMILES: C=CCSS/C=C/C[S+]([O-])CCC (mixture of isomers) [Compound E-3, (E/Z)-4,5,9-trithiadodeca-1,6-diene-9-oxide]
pIC50 (WHCO1 cells; WHCO1, 48 h): 4.45
pIC50 (CT-1 cells; Homo sapiens, WI-38, 48 h): 4.57

SMILES: CCCSSC=CC[S+]([O-])CCC (mixture of isomers) [Compound E-14, (E/Z)-4,5,9-trithiadodeca-6-ene-9-oxide]
pIC50 (WHCO1 cells): 4.47
pIC50 (CT-1 cells): 5.03

SMILES: COc1ccc(C[S+]([O-])CC=CSSCc2ccc(F)cc2)cc1 (mixture of isomers) [EZ-10, (E/Z)-1-(p-fluorophenyl)-8-(p-methoxyphenyl)-2,3,7-trithiaocta-4-ene-7-oxide]
pIC50 (WHCO1 cells): 4.87

SMILES: C=CCSS/C=C/C[S+]([O-])CC=C (stereo not drawn) [Z-ajoene, 4,5,9-trithiadodeca-1,6,11-triene-9-oxide, reference compound]
pIC50 (WHCO1 cells): 4.69
pIC50 (CT-1 cells): 4.81

pIC50 (MDA-MB-231 cells): 5.92
SMILES: COc1ccc(C[S+]([O-])CC=CSSCc2ccccc2)cc1 (mixture of isomers) [EZ-12, (E/Z)-1-phenyl-8-(p-methoxyphenyl)-2,3,7-trithiaocta-4-ene-7-oxide]
pIC50 (WHCO1 cells; WHCO1, 48 h): 5.52

SMILES: C=CCSSC=CC[S+]([O-])CCCO (mixture of isomers) [Compound Z-4, (E/Z)-4,8,9-trithiadodeca-6,11-diene-1-ol-4-oxide]
pIC50 (WHCO1 cells): 4.42
pIC50 (CT-1 cells): 4.64

SMILES: C=CCSSC=CC[S+]([O-])C(C)(C)C (mixture of isomers) [EZ-6, (E/Z)-10,10-dimethyl-4,5,9-trithiaundeca-1,6-diene-9-oxide]
pIC50 (WHCO1 cells): 4.60
pIC50 (CT-1 cells): 4.48

pIC50 (MDA-MB-231 cells): 4.72
SMILES: C=CCSS/C=C\C[S+]([O-])CCC (mixture of isomers) [Compound Z-3, (E/Z)-4,5,9-trithiadodeca-1,6-diene-9-oxide]
pIC50 (WHCO1 cells; WHCO1, 48 h): 4.67
pIC50 (CT-1 cells; Homo sapiens, WI-38, 48 h): 4.77

SMILES: C=CCSS/C=C/C[S+]([O-])CC=C (stereo not drawn) [E-ajoene, 4,5,9-trithiadodeca-1,6,11-triene-9-oxide, reference compound]
pIC50 (WHCO1 cells; WHCO1, 48 h): 4.68
pIC50 (CT-1 cells; Homo sapiens, WI-38, 48 h): 4.75
